Active and inactive are the calls of the source. No cut-off for these calls is given here.

The test system of series [1] is A2780. As to the kind of experiment: Downregulation of Oct4 expression in human A2780 cells at IC50 concentration. It is filed as functional, cell-based.
A short description of series [2]: Cytotoxicity against non-cancerous fallopian tube ovarian cell (unknown origin). Format: toxicity, cell-based. The following applies: non-cancerous fallopian tube ovarian cells.
Series [3] concerns A2780. In words: Antiproliferative activity against human A2780 cells assessed as cell viability at 50 uM incubated for 72 hrs by CCK8 assay. It is filed as functional. Conditions: read-out: Activity.
Series [4] deals with A2780. In words: Downregulation of Sox2 expression in human A2780 cells at IC50 concentration. Format: functional, cell-based.
Series [5] concerns A2780. As to the kind of experiment: Induction of apoptosis in human A2780 cells assessed as increase in cleaved caspase-9 level at IC50 concentration incubated for 72 hrs by immunoblotting analysis. It is filed as functional, cell-based.
In series [6] the test system is A2780. As to the kind of experiment: Downregulation of Nanog expression in human A2780 cells at IC50 concentration. It is filed as functional, cell-based.
In series [7] the test system is A2780. As to the kind of experiment: Downregulation of CD133 expression in human A2780 cells at IC50 concentration. Format: functional, cell-based.
Series [8] deals with A2780. In words: Induction of apoptosis in human A2780 cells assessed as increase in cleaved PARP level at IC50 concentration incubated for 72 hrs by immunoblotting analysis. It is filed as functional, cell-based.
Series [9] deals with A2780. In words: Induction of apoptosis in human A2780 cells assessed as increase in cytochrome C release at IC50 concentration incubated for 72 hrs by immunoblotting analysis. Format: functional, cell-based.
Series [10] is described as follows: Cytotoxicity against HK-2 cells. The following applies: human. Format: toxicity, cell-based.
For series [11], the system named is A2780. As to the kind of experiment: Reduction in IDO1 level in human A2780 cells at IC50 concentration incubated for 72 hrs by immunoblotting analysis. It is filed as functional, cell-based.
Series [12] relates to A2780. In words: Antiproliferative activity against human A2780 cells assessed as cell viability incubated for 72 hrs by CCK8 assay. It is filed as functional, cell-based. Conditions: A2780, 72 h.
Series [13] relates to A2780. As to the kind of experiment: Induction of apoptosis in human A2780 cells assessed as increase in cleaved caspase-8 level at IC50 concentration incubated for 72 hrs by immunoblotting analysis. Format: functional, cell-based.
Series [14] has as its system A2780. In words: Reduction in PD-L1 expression in human A2780 cells at IC50 concentration incubated for 72 hrs by immunoblotting analysis. It is filed as functional, cell-based.
In series [15] the test system is A2780. In words: Inhibition of tumor sphere formation in human A2780 cells at IC50 concentration. Format: functional, cell-based.
For series [16], the system named is A2780. As to the kind of experiment: Induction of apoptosis in human A2780 cells assessed as increase in cleaved caspase-3 level at IC50 concentration incubated for 72 hrs by immunoblotting analysis. Format: functional, cell-based.
The subject of series [17] is A2780. In words: Induction of apoptosis in human A2780 cells assessed as increase in mature AIF expression at IC50 concentration incubated for 72 hrs by immunoblotting analysis. It is filed as functional, cell-based.
Series [18] relates to A2780. In words: Inhibition of tumor sphere formation in human A2780 cells assessed as reduction in diameter of the sphere at IC50 concentration (Rvb > 200 micrometer). It is filed as functional.
The subject of series [19] is A2780. In words: Cytotoxicity against cisplatin resistant human A2780 cells assessed as reduction in cell viability at IC50 concentration incubated for 72 hrs in presence of cisplatin by CCK-8 method. Format: functional, cell-based.

As to `O=C(Nc1cccc(Cl)c1)C1CCN(c2ncnc3ccccc23)CC1`, the outcome in series [1], in [4], in series [5], in series [6], in series [7] and in series [8] was Active. Moreover, the outcome in series [9], in [11], in series [13], in [14] and in series [16] was Active. The IC50 is over 50 µM in series [2], over 50 µM in series [10] and 12.2 µM in series [12]. For the same compound, the viability at 50 µM in series [3] came to 22%. In [15], the inhibition result was “Active”.

Take `O=C(Nc1ccccc1Cl)C1CCN(c2ncnc3ccccc23)CC1`: the outcome in [1], in series [4], in series [5], in [6], in [7] and in series [8] was Active. The result in [9], in series [11], in series [13], in [14], in series [17] and in series [16] was Active. Moreover, the IC50 in series [2] was over 50 µM; in series [10] it was over 50 µM; in series [12] it was 22.6 µM. Moreover, in [3], the viability at 50 µM is 30%. Moreover, in series [15], the inhibition result was “Active”.

Regarding `O=C(Nc1ccc(I)cc1F)C1CCN(c2ncnc3ccccc23)CC1`, in series [3], the viability at 50 µM was determined as 76%.

Regarding `O=C(Nc1ccccc1)C1CCN(c2ncnc3ccccc23)CC1`, the IC50 in series [2], in series [10] and in [12] was over 50 µM each time. For the same compound, the viability at 50 µM in series [3] is 42%.

On to `COc1ccc(NC(=O)C2CCN(c3ncnc4ccccc34)CC2)cc1`, for which the figures for the IC50 in series [2], in series [10] and in [12] were over 50 µM, over 50 µM and 9.91 µM, respectively. Besides, the viability at 50 µM in series [3] was determined as 27%. For the same compound, the result in [4] was inactive. In addition, the outcome in [6], in series [7], in series [8], in series [9], in [11] and in series [14] was Active. The outcome in series [17] and in series [16] was Active. The Activity in [18] is reported as under 200 um.

In the case of `O=C(Nc1ccc([N+](=O)[O-])cc1)C1CCN(c2ncnc3ccccc23)CC1`, the IC50 in series [2] is over 50 µM; in series [10] it was over 50 µM; in [12], 4.95 µM. In series [3], the viability at 50 µM was 33%. The outcome in series [4] was inactive. Also, the result in series [6], in [7], in [8], in series [9], in [11] and in series [14] was Active. The outcome in [17] and in series [16] was Active. In series [15], the inhibition result is “Active”.

Turning to `O=C(Nc1ccc(Br)cc1)C1CCN(c2ncnc3ccccc23)CC1`, the result in [1], in [4], in series [6], in [7], in series [11] and in series [13] was Active. Also, the outcome in series [14] and in series [17] was Active. For the same compound, the IC50 in [2] is over 50 µM; in series [10] it was over 50 µM; in [12], 10.8 µM. Besides, the viability at 50 µM in series [3] came out at 28%. For the same compound, in series [15], the inhibition entry was “Active”.

In the case of `Nc1nonc1C(=NO)Nc1ccc(F)c(Cl)c1`, the IC50 in [2] is 18.4 µM; in [10], 30.8 µM; in [12], 14.9 µM.

Turning to `O=C(Nc1cccc(F)c1)C1CCN(c2ncnc3ccccc23)CC1`, the viability at 50 µM in series [3] is 58%.

As for `O=C(Nc1ccccc1F)C1CCN(c2ncnc3ccccc23)CC1`, the viability at 50 µM in series [3] worked out at 52%.

On to `O=C(Nc1ccc(F)cc1)C1CCN(c2ncnc3ccccc23)CC1`, for which the viability at 50 µM in series [3] came to 68%.

`COc1ccc(NC(=O)C2CCN(c3ncnc4ccccc34)CC2)c(OC)c1`: in series [3], the viability at 50 µM amounted to 60%.

Regarding `O=C(Nc1ccc(F)c(Cl)c1)C1CCN(c2ncnc3ccccc23)CC1`, the viability at 50 µM in [3] was found to be 53%.

Consider `O=C(Nc1cccc2c1OCCO2)C1CCN(c2ncnc3ccccc23)CC1`, for which, in [3], the viability at 50 µM worked out at 64%.

For `O=C(Nc1ccc(Cl)cc1)C1CCN(c2ncnc3ccccc23)CC1`, the result in series [1], in series [19], in series [4], in series [6], in [7] and in series [8] was Active. Further, the result in [9], in series [11], in series [13], in series [14] and in [16] was Active. Moreover, the IC50 is over 50 µM in [2], over 50 µM in series [10] and 5.68 µM in series [12]. Also, the viability at 50 µM in series [3] was determined as 26%. Besides, the inhibition entry in series [15] was “Active”.

Values taken from ChEMBL document CHEMBL5576056, “Design, synthesis and biological evaluation of novel quinazoline derivatives as immune checkpoint inhibitors” (Bioorg Med Chem Lett, 2024).
